Measurements published in patent US7491796B1, “Retro-inversion peptides that target GIT receptors and related methods” (Merrion Research III Limited, priority 1998, dated 2009).
pKd: −log10 of the molar value. Where no end group is shown, it is not given here. The star is where a group is joined. Dansyl = CN(C)c1cccc2c(S(=O)(=O)*)cccc12

Test system: Caco-2 cell membrane (P100) fractions
Test: Binding of dansylated peptides to Caco-2 cell membrane (P100) fractions by ELISA
Details: for pKd: Caco-2 P100 fractions, ELISA, read-out: KD (concentration of the peptide required to reach half maximal binding to Caco-2 P100 fractions); for Binding to P100 relative to ZElan021 (arbitrary value 1.00), P100 assay number 4: assay 4; for Binding to P100 relative to ZElan021 (arbitrary value 1.00), P100 assay number 4 / Binding to P100 relative to ZElan021 (arbitrary value 1.00), P100 assay number 5 / Binding to P100 relative to ZElan021 (arbitrary value 1.00), P100 assay number 6 / Binding to P100 relative to ZElan021 (arbitrary value 1.00), P100 assay number 7 / Binding to P100 relative to ZElan021 (arbitrary value 1.00), P100 assay number 8: peptide at 25 μg/ml; for Binding to P100 relative to ZElan021 (arbitrary value 1.00), P100 assay number 5: assay 5; for Binding to P100 relative to ZElan021 (arbitrary value 1.00), P100 assay number 6: assay 6; for Binding to P100 relative to ZElan021 (arbitrary value 1.00), P100 assay number 7: assay 7; for Binding to P100 relative to ZElan021 (arbitrary value 1.00), P100 assay number 8: assay 8
Procedure: Similar to the methods described in the above-referenced WO 98/51325, Caco-2 cell membrane (P100) and cytosolic (S100) fractions were prepared using a modification of the method described in Kinsella, B. T., O'Mahony, D. J. and G. A. FitzGerald, 1994, J. Biol. Chem. 269(47): 29914-29919. Confluent Caco-2 cell monolayers (grown in 75 cm^2 flasks for up to 1 week at 37° C. and 5% CO2) were washed twice in Dulbecco's PBS (DPBS) and the cells were harvested by centrifugation at 1000 rpm after treatment with 10 mM EDTA-DPBS. The cells were washed 3 times in DPBS and the final cell pellet was resuspended in 3 volumes of ice cold HED buffer (20 mM HEPES (pH 7.67), 1 mM EGTA, 0.5 mM dithiothreitol, 1 mM phenylmethylsulphonyl fluoride (PMSF)). The cells were allowed to swell for 5 min on ice prior to homogenization for 30 sec. The homogenates were centrifuged at 40,000 rpm for 45 min at 4° C. The supernatant (S100) was removed and the pellet (P100) was resuspended in HEDG buffer (20 mM HEPES (pH 7.67), 1 mM EGTA, 0.5 mM dithiothreitol, 100 mM NaCl, 10% glycerol, 1 mM PMSF). Protein concentrations were determined using the Bradford assay (Bradford, M. M., 1976, Anal. Biochem. 72: 248-254).
Binding of peptides to membrane (P100) was assessed by detection of the dansyl moiety incorporated in the peptide. Costar ninety six well ELISA plates were coated with P100 fractions (100 μg/ml in 0.05 M NaHCO3 (pH 9.6); 100 μl/well) overnight at 4° C. The plates were blocked with 2% Marvel-DPBS for 1 h at room temperature and washed 3 times in 1% DPBS-Tween. Peptides (200 μg/ml in 2% Marvel-DPBS) were serially diluted on the plates and incubated for 1 h at room temperature. The plates were washed 5 times and the dansylated peptides were detected using i) mouse anti-dansyl antiserum (Cytogen DB3-226.3; 1:1340 dilution in 2% Marvel-DPBS) or ii) rabbit anti-dansyl antiserum (La Jolla Diagnostics LAJD-119; 1:1000 dilutions) for 1 h at room temperature. The plates were washed 3 times prior to incubation with i) goat anti-mouse IgGλ:HRP antibody (Southern Biotechnology 1060-05; 1:10,000 dilution in 2% Marvel-DPBS) or ii) anti-rabbit IgG HRP (Sigma A-0545, 1:8,000) for 1 h at room temperature. After 3 washes, reactions were visualized using K Blue Substrate and Red Stop Solution (Neogen Co. 300176 & 301475, respectively) at 650 nm.
ZElan021, full length HAX42 [K(dns)-[…]] (SEQ ID NO:53; dansylated version is SEQ ID NO:8) was given the arbitrary value of 1.00 for binding to P100 at a given peptide concentration determined from the signal-to-noise ratio data. […] Assay number 1 was at 20 μg/ml; 2 and 3 were at 50 μg/ml; and 4 through 8 were at 25 μg/ml.
KD values, or the concentration of the peptide required to reach half maximal binding to Caco-2 P100 fractions, are given in Table 3 for ZElan021, full length HAX42, [K(dns)-[…]] (SEQ ID NO:53; dansylated version is SEQ ID NO:8), HAX42 fragment ZElan091, and the retro-inverted form of this fragment, ZElan146 as well as for ZElan018, full length PAX2, [K(dns)-STPPSREAYSRPYSVDS […]] (SEQ ID NO:7; dansylated version is SEQ ID NO:15), PAX2 fragment ZElan129, and the retro-inverted form of this fragment, ZELan144.

Row | Substance | pKd | Binding to P100 relative to ZElan021 (arbitrary value 1.00), P100 assay number 1 (assay 1, peptide at 20 μg/ml) | Binding to P100 relative to ZElan021 (arbitrary value 1.00), P100 assay number 2 (assay 2, peptide at 50 μg/ml) | Binding to P100 relative to ZElan021 (arbitrary value 1.00), P100 assay number 3 (assay 3, peptide at 50 μg/ml) | Binding to P100 relative to ZElan021 (arbitrary value 1.00), P100 assay number 4 | Binding to P100 relative to ZElan021 (arbitrary value 1.00), P100 assay number 5 | Binding to P100 relative to ZElan021 (arbitrary value 1.00), P100 assay number 6 | Binding to P100 relative to ZElan021 (arbitrary value 1.00), P100 assay number 7 | Binding to P100 relative to ZElan021 (arbitrary value 1.00), P100 assay number 8
1 | K(dns)-SDHALGTNLRSDNAKEPGDYNCCGNGNSTGRKVFNRRRPSAIPT (K(Dansyl)SDHALGTNLRSDNAKEPGDYNCCGNGNSTGRKVFNRRRPSAIPT; cysteine pairing not given here) [ZElan021, dansylated full length HAX42] | 5.17 | 1.00 | 1.00 | 1.00 | 1.00 | 1.00 | 1.00 | 1.14 | 0.94
2 | K(dns)-STPPSREAYSRPYSVDS DSDTNAKHSSHNRRLRTRSRPNG (K(Dansyl)STPPSREAYSRPYSVDSDSDTNAKHSSHNRRLRTRSRPNG) [ZElan018, dansylated full length PAX2] | < 4.30 |  |  |  |  |  |  |  | 
3 | K(dns)-TNAKHSSHNRRLRTR (K(Dansyl)TNAKHSSHNRRLRTR) [ZElan129, dansylated PAX2 15 mer fragment] | 4.53 |  |  |  |  |  |  |  | 
4 | K(dns)-PGDYNCCGNGNSTG [ZElan091] | 6.12 |  |  |  | 2.02 | 1.37 | 1.20 | 0.85 | 
5 | K(dns)-gtsngngccnydgp [ZElan146] | 4.66 |  |  |  |  |  |  | 0.36 | 0.72
6 | K(dns)-rtrlrrnhsshkant [ZElan144] | 4.54 |  |  |  |  |  |  |  | 
